From PMC6044503 (ACS Omega, 2017) come the findings set out here.

The target of data set [1] is T1, human Y2R (Homo sapiens, UniProt P49146).
T1 sequence (P49146 1-381): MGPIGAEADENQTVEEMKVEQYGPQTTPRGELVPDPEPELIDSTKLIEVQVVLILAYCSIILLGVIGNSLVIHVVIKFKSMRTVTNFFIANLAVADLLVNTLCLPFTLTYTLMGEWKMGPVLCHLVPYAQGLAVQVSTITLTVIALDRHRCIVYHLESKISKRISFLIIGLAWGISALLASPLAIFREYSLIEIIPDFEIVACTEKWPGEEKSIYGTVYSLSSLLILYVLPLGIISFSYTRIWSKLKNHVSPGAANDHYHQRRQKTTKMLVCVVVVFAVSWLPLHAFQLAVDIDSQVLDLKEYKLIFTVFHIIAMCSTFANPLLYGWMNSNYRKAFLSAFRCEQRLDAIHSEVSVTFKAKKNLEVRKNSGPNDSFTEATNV
The data set can be described thus: biochemical. It is filed as binding.

In data set [2] the target is T1, human Y2R. The data set can be described thus: biochemical. In kind it is biochemical.
The test system of data set [3] is male C57BL/6J mice. The data set is described as follows: Food intake assay, bolus ip administration in lean mice. In kind it is in vivo, mouse. The settings on record: 3 h after administration, vs saline, mean ± SD.
Data set [4] is described as follows: Stability in 20% mouse serum/PBS. It is filed as in vitro ADME. The following applies: mouse, 20% mouse serum in PBS.
Data set [5] can be described thus: Pharmacokinetics of PYY analogues in mice. It is filed as in vivo. The following applies: C57BL/6J, mouse, plasma, 1 mg/kg.

Where a SMILES comes first, the peptide text is derived from it. [ ]: non-standard residue; d: D form. The star is where a group is joined. 2Nal = N[C@@H](Cc1ccc2ccccc2c1)C(=O)O; Cha = N[C@@H](CC1CCCCC1)C(=O)O; Aib = CC(C)(N)C(=O)O; Bz = O=C(c1ccccc1)*

For orientation: IC50 means the concentration that inhibits the measured activity by half. A low value points to higher potency. As a reminder, the EC50 is the concentration at which the effect is half-maximal. Low readings indicate an effect from little substance, high ones a need for much substance. One may read the amount remaining as the share of the starting amount still present when the sample was taken. In data set [1], `CC[C@H](C)[C@H](NC(=O)[C@H](CC1CCCCC1)NC(=O)[C@H](Cc1c[nH]cn1)NC(=O)[C@H](CCCNC(=N)N)NC(=O)c1ccccc1)C(=O)N[C@@H](CC(N)=O)C(=O)N[C@@H](CC(C)C)C(=O)NC(C)(C)C(=O)N[C@H](C(=O)N[C@@H](CCCNC(=N)N)C(=O)N[C@@H](CCC(N)=O)C(=O)N[C@@H](CCCNC(=N)N)C(=O)N[C@@H](CC1CCCCC1)C(N)=O)[C@@H](C)O` [Compound 10] (Bz-RH[Cha]INL[Aib]TRQR[Cha]-NH2) yielded an IC50 of 4.8 nM. In data set [2], the EC50 worked out at 1.1 nM. For the same compound, the “% food intake inhibition” value in data set [3] (bolus ip 250 nmol/kg) turned out to be 3 ± 4%; in data set [3] (bolus ip 500 nmol/kg), 8 ± 7%; in data set [3] (bolus ip 1000 nmol/kg) it was 39 ± 3%; in data set [3] (bolus ip 2000 nmol/kg), 60 ± 7%. In data set [4], this compound came in with a fraction remaining at 0.5 h of 94%.

As for `CC[C@H](C)[C@H](NC(=O)[C@H](CC1CCCCC1)NC(=O)[C@H](Cc1c[nH]cn1)NC(=O)[C@H](CCCNC(=N)N)NC(=O)c1ccccc1)C(=O)N[C@@H](CC(N)=O)C(=O)N[C@@H](Cc1c[nH]c2ccccc12)C(=O)NC(C)(C)C(=O)N[C@H](C(=O)N[C@@H](CCCNC(=N)N)C(=O)N[C@@H](CCC(N)=O)C(=O)N[C@@H](CCCNC(=N)N)C(=O)N[C@@H](CC1CCCCC1)C(N)=O)[C@@H](C)O` [Compound 11] (Bz-RH[Cha]INW[Aib]TRQR[Cha]-NH2), the midpoint of inhibition in data set [1], the IC50, lay at 11 nM. The response in data set [2] was half-maximal at 2.4 nM (EC50). The “% food intake inhibition” value in data set [3] (bolus ip 500 nmol/kg) was 12 ± 3%; in data set [3] (bolus ip 1000 nmol/kg), 36 ± 8%; in data set [3] (bolus ip 2000 nmol/kg), 52 ± 5%. In addition, in data set [4], the fraction remaining at 0.5 h is 95%.

With `CC[C@H](C)[C@H](NC(=O)[C@H](CC1CCCCC1)NC(=O)[C@H](Cc1c[nH]cn1)NC(=O)[C@H](CCCNC(=N)N)NC(=O)c1ccccc1)C(=O)N[C@@H](CC(N)=O)C(=O)N[C@@H](Cc1c[nH]c2ccccc12)C(=O)N[C@@H](CCCCN)C(=O)N[C@H](C(=O)N[C@@H](CCCNC(=N)N)C(=O)N[C@@H](CCC(N)=O)C(=O)N[C@@H](CCCNC(=N)N)C(=O)N[C@@H](CC1CCCCC1)C(N)=O)[C@@H](C)O` [Compound 12] (Bz-RH[Cha]INWKTRQR[Cha]-NH2), 2.4 nM corresponded to half-maximal inhibition in data set [1] (IC50). The midpoint of the response in data set [2], the EC50, lay at 0.84 nM. Further, the “% food intake inhibition” value in data set [3] (bolus ip 1000 nmol/kg) came to 4 ± 13%. In addition, the fraction remaining at 0.5 h in data set [4] stood at 51%.

With `CC[C@H](C)[C@H](NC(=O)[C@H](Cc1ccc2ccccc2c1)NC(=O)[C@H](Cc1c[nH]cn1)NC(=O)[C@H](CCCNC(=N)N)NC(=O)c1ccccc1)C(=O)N[C@@H](CC(N)=O)C(=O)N[C@@H](Cc1c[nH]c2ccccc12)C(=O)N[C@H](C(=O)N[C@H](C(=O)N[C@@H](CCCNC(=N)N)C(=O)N[C@@H](CCC(N)=O)C(=O)N[C@@H](CCCNC(=N)N)C(=O)N[C@@H](CC1CCCCC1)C(N)=O)[C@@H](C)O)[C@@H](C)CC` [Compound 15] (Bz-RH[2Nal]INWITRQR[Cha]-NH2), in data set [1], the IC50 was determined as 19 nM. The compound also came in with a concentration for a half-maximal effect (EC50) in data set [2] of 7.3 nM. Further, the “% food intake inhibition” value in data set [3] (bolus ip 500 nmol/kg) is 19 ± 7%. The compound also registered a fraction remaining at 0.5 h in data set [4] of 100%.

A word on the Cmax: it is the peak of the concentration-time curve. As a reminder, the MRT is the average time that molecules of a dose stay in the body. Broadly, the Tmax is the time from dosing to the highest level. For orientation: bioavailability means dose-corrected exposure relative to a reference, in per cent. The low end stands for little systemic uptake, the high end for much systemic uptake. In general, Vd refers to a proportionality between amount in the body and measured concentration, not a real space. Low readings indicate confinement near the circulation, high ones extensive tissue distribution. The clearance is a measure of how efficiently the substance is removed, as volume per time. Low readings indicate a low capacity for elimination, high ones a high capacity for elimination. With `CC(C)C[C@H](NC(=O)[C@H](CC(N)=O)NC(=O)[C@H](CC1CCCCC1)NC(=O)[C@H](CC1CCCCC1)NC(=O)[C@H](Cc1cnc[nH]1)NC(=O)[C@H](CCCNC(=N)N)NC(=O)c1ccccc1)C(=O)NC(C)(C)C(=O)N[C@H](C(=O)N[C@@H](CCCNC(=N)N)C(=O)N[C@@H](CCC(N)=O)C(=O)N[C@@H](CCCNC(=N)N)C(=O)N[C@@H](CC1CCCCC1)C(N)=O)[C@@H](C)O` [Compound 21, benzoyl-[Cha^27,28,36,Aib^31]PYY(25–36)] (Bz-RH[Cha][Cha]NL[Aib]TRQR[Cha]-NH2), in data set [5] (ip), the highest level (Cmax) was 406 nM, the MRT turned out to be 75 min, the Tmax is 15 min and the bioavailability came out at 6.8%. In data set [5] (iv), this compound gave an MRT of 27 min, a Vd of 0.073 L/kg and a clearance of 2.7 mL/min/kg.
